# Experiments:
# Type in all cases: biochemical
# [1] = target: T1, TGDS (dTDP-D-glucose 4,6-dehydratase) (Homo sapiens, UniProt O95455); assay: Recombinant enzyme assay, LC-MS
# T1 construct: N-terminal hexahistidine-tag fused to amino acid 15 of TGDS
# T1 sequence (O95455 15-350): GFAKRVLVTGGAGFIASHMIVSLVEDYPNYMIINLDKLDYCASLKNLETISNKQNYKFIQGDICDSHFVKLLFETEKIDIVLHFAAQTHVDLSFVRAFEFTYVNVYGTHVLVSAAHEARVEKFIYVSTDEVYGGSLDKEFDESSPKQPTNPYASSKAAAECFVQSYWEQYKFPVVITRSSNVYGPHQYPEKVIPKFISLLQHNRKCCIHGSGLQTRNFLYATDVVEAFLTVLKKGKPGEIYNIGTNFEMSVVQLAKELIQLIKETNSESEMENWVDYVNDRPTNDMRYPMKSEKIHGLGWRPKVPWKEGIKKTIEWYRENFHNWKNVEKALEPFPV
# [2] = target: T2, UXS1 (UDP-xylose synthase) (Homo sapiens, UniProt Q8NBZ7); assay: NaBH4 reduction of enzyme-bound NAD+ in recombinant UXS1, LC-MS of NADH and activity
# T2 sequence (Q8NBZ7 1-420): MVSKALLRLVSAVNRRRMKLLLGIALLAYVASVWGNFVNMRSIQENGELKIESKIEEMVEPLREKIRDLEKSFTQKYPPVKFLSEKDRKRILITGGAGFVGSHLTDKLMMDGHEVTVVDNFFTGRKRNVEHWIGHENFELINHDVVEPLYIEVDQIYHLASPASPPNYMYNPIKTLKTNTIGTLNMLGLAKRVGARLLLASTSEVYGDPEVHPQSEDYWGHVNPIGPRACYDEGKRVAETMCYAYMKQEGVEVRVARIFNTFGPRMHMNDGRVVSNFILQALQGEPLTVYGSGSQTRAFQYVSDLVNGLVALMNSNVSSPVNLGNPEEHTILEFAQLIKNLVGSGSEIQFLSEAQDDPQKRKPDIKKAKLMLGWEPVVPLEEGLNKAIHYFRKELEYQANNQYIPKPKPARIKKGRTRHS
# [3] = target: T2, UXS1 (UDP-xylose synthase); assay: Recombinant enzyme assay, LC-MS
structure (smiles),measurement,setting,value
"C[C@H]1O[C@H](OP(=O)(O)OP(=O)(O)OC[C@H]2O[C@@H](n3ccc(=O)[nH]c3=O)[C@H](O)[C@@H]2O)[C@H](O)[C@@H](O)C1=O [UDP-4k6dG, UDP-4-keto-6-deoxyglucose]","Recombinant enzyme assay, LC-MS",[1],"TGDS produced a metabolite with identical m/z, elution time and hydration status as UDP-4-keto-6-deoxyglucose produced by fungal UG46DH"
NC(=O)C1=CN([C@@H]2O[C@H](COP(=O)(O)OP(=O)(O)OC[C@H]3O[C@@H](n4cnc5c(N)ncnc54)[C@H](O)[C@@H]3O)[C@@H](O)[C@H]2O)C=CC1 [NADH],"NaBH4 reduction of enzyme-bound NAD+ in recombinant UXS1, LC-MS of NADH and acti",[2],This led to tenfold lower levels of NAD^+ and a concomitant increase in NADH
"O=c1ccn([C@@H]2O[C@H](COP(=O)(O)OP(=O)(O)O[C@H]3OC[C@@H](O)[C@H](O)[C@H]3O)[C@@H](O)[C@H]2O)c(=O)[nH]1 [UDP-Xyl, UDP-xylose]","Recombinant enzyme assay, LC-MS",[3],"We observed an almost complete recovery of UDP-xylose production, an increase of NAD^+"
